Data from the NIST ThermoML archive (doi:10.1016/j.fluid.2005.07.009).

How the values were obtained:
[1] = Crystal; DTA
[2] = molar heat capacity at constant pressure; details: 101.33 kPa, Small sample (50 mg) DSC
[3] = Molar enthalpy of transition or fusion; details: Crystal; DSC

CCCCCCCCCCO [decan-1-ol]
Details | Molar enthalpy of transition or fusion [kcal/mol] | Triple point temperature [K]
[1] | – | 278.67
[3] | 7.5 | –

[2]
Details | molar heat capacity at constant pressure [J/K/mol]
215.12 K, Crystal | 224.54
216.09 K, Crystal | 227.81
217.28 K, Crystal | 228.07
218.46 K, Crystal | 228.68
219.05 K, Crystal | 228.9
219.59 K, Crystal | 229.05
222.22 K, Crystal | 229.19
222.81 K, Crystal | 230.27
223.03 K, Crystal | 230.39
226.41 K, Crystal | 231.18
227.05 K, Crystal | 232.61
229.62 K, Crystal | 232.81
230.15 K, Crystal | 233.54
231.71 K, Crystal | 234.37
232.3 K, Crystal | 234.76
233.74 K, Crystal | 235.5
234.54 K, Crystal | 235.92
235.82 K, Crystal | 237.25
236.3 K, Crystal | 237.29
237.11 K, Crystal | 238.88
238.28 K, Crystal | 239.81
239.94 K, Crystal | 240.28
240.47 K, Crystal | 240.35
241.16 K, Crystal | 241
242.71 K, Crystal | 241.58
244.15 K, Crystal | 244.94
246.13 K, Crystal | 245.49
248.85 K, Crystal | 245.75
249.22 K, Crystal | 246.47
250.88 K, Crystal | 247.17
251.14 K, Crystal | 247.6
252.58 K, Crystal | 250.51
253.49 K, Crystal | 252.9
284.18 K, Liquid | 357.16
285.11 K, Liquid | 357.65
286.23 K, Liquid | 359.66
287.17 K, Liquid | 360.07
288.21 K, Liquid | 361.72
289.63 K, Liquid | 363.32
290.29 K, Liquid | 363.87
291.08 K, Liquid | 364.63
292.13 K, Liquid | 366.29
293.23 K, Liquid | 366.99
294.29 K, Liquid | 368.16
295.69 K, Liquid | 369.19
296.43 K, Liquid | 370.09
297.49 K, Liquid | 370.33
298.55 K, Liquid | 373
299.51 K, Liquid | 374.14
300.21 K, Liquid | 375.31
301.18 K, Liquid | 375.74
302.45 K, Liquid | 377.89
304.22 K, Liquid | 380.22
305.31 K, Liquid | 381.17
306.42 K, Liquid | 382.5
307.18 K, Liquid | 383.77
308.14 K, Liquid | 384.86
